Laboratory results taken from US12083196B2, “Personal cleansing compositions with surfactants for increased foam performance” (ECOLAB USA INC., priority 2020, dated 2024).

Experiment: SITA Foam Analyzer foam creation
Format: physicochemical
Text: The reagents used below include: • Alpha-Step® PC-48 is a C10-16 sodium methyl 2-sulfolaurate and disodium 2-sulfolaurate available from Stepan; • Stepan-Mild® L3 is a predominantly C12 reaction product of lauryl alcohol and lactic acid available from Stepan; • SLES is sodium laureth sulfate; • Cola® Teric is an amphoteric sultaine available from Colonial Chemical, Inc.; • Glucopon® […] is an alkyl polyglycoside available from BASF Corporation; • Suga® Nate is a sodium laurylglucosides hydrooxypropylsulfonate available from Colonial Chemicals, Inc; • Lathanol® LAL is a sodium lauryl sulfoacetate available from Stepan. All experiments ran through the SITA Foam Analyzer were as follows: Equipment: • 1) Foaming Apparatus • 2) SITA Software Reagents: • 1) 250 mL of each solution • 2) DI water Preparation: Equipment is prepared by turning the water bath on with ample time to warm up before running tests. Adjust water bath to desired temperature. Quality Assurance: Run a positive and negative control for every experiment. Ensure equipment is clean and free from any residual surfactant chemistry beforehand. In each experiment set, proper differentiation between chemistries can be seen if at least one of the tested chemistries has an “S” curve that depicts a change in the initial foam building and the lathering step. Experimental Procedure: • 1) Prepare water bath • 2) Open the “SITA-foam” software on the computer. […] Foam Generation • i. Series Count (cycles): number of measurement replicates (3-triplicate) • ii. Fill With: Volume of sample liquid (250 mL for each test) • iii. Stir Count: Number of stirrings for each test (70). This is also the number of measurements for each cycle. • iv. Stir Time: Stirring duration of sample (10 sec) • v. Revolution: RPM o the stirrer (900 RMP) • b. Cleansing • i. Click the shower icon to activate the automatic cleansing and rinsing function. The vessel will be cleaned automatically after each cycle of measurements. • ii. Normal cleansing will rinse out the vessel many times. Small cleansing indicates a faster cleansing process. All above parameters can be saved • 5) After setting the parameters, click on “Start Measurement” which is the green “Play” button to proceed with the experiment • 6) After each cycle of experiments automatic cleansing and rinsing is done in preparation for the next cycle of measurements as long as the instrument is connected to tap water or a cleansing liquid reservoir • 7) Each click on the green “Start Measurement” icon opens a new window. The current sample measurement results are all in the same project folder. To rename sample measurement files, right click on the open sample window, and click “save” to rename your sample file • 8) If an error occurs at any point with your sample, the measurement reading can be stopped by clicking the red square “Stop icon” or by pressing the large red button on the machine • 9) Organize the graph generated with the icons in the fourth section of the tool bar: create new plot, add/remove data from plot, change axis properties, and view properties. Click on the “Create new plot” icon to view the plot after the experiment is done or if it is still running. Right click to rename the plot, insert or remove the plot and display the foam buildup, foam decay, or both Establishing initial foaming of the single surfactants is important to establish baselines for comparison for the combinations of various surfactants. To establish the foaming properties of single surfactants, a high amount of each surfactant was analyzed in the SITA Foam Analyzer as described above. The final concentration of each surfactant in solution was 1%. The surfactants tested were sodium lauryl sulfate (SLES), a betaine, Cola® Teric CBS, Glucopon® […], Lathanol® LAL, and Suga® Nate 160NC. […] The compositions were tested for foaming using the SITA Foam Analyzer as described above. […]

## sodium laureth sulfate [SLES]
SLES 0.2 wt. %, second surfactant 0.005 wt. %, FIG. 3
  ability to reach saturation of foam (in words): unable to reach saturation
Cycle 0, SLES 0.2 wt. %, second surfactant 0.005 wt. %
  foam height: 0 mL
Cycle 1, SLES 0.2 wt. %, second surfactant 0.005 wt. %
  foam height: 147.3 mL
Cycle 2, SLES 0.2 wt. %, second surfactant 0.005 wt. %
  foam height: 161 mL
Cycle 3, SLES 0.2 wt. %, second surfactant 0.005 wt. %
  foam height: 168.3 mL
Cycle 4, SLES 0.2 wt. %, second surfactant 0.005 wt. %
  foam height: 172.67 mL
Cycle 5, SLES 0.2 wt. %, second surfactant 0.005 wt. %
  foam height: 174 mL
Cycle 6, SLES 0.2 wt. %, second surfactant 0.005 wt. %
  foam height: 177 mL
Cycle 7, SLES 0.2 wt. %, second surfactant 0.005 wt. %
  foam height: 185.67 mL
Cycle 8, SLES 0.2 wt. %, second surfactant 0.005 wt. %
  foam height: 188.3 mL
Cycle 9, SLES 0.2 wt. %, second surfactant 0.005 wt. %
  foam height: 193.67 mL
Cycle 10, SLES 0.2 wt. %, second surfactant 0.005 wt. %
  foam height: 200 mL
Cycle 11, SLES 0.2 wt. %, second surfactant 0.005 wt. %
  foam height: 202.3 mL
Cycle 12, SLES 0.2 wt. %, second surfactant 0.005 wt. %
  foam height: 204.67 mL
Cycle 13, SLES 0.2 wt. %, second surfactant 0.005 wt. %
  foam height: 210 mL
Cycle 14, SLES 0.2 wt. %, second surfactant 0.005 wt. %
  foam height: 213 mL
Cycle 15, SLES 0.2 wt. %, second surfactant 0.005 wt. %
  foam height: 217 mL
Cycle 16, SLES 0.2 wt. %, second surfactant 0.005 wt. %
  foam height: 219.3 mL
Cycle 17, SLES 0.2 wt. %, second surfactant 0.005 wt. %
  foam height: 221.3 mL
Cycle 18, SLES 0.2 wt. %, second surfactant 0.005 wt. %
  foam height: 222.67 mL
Cycle 19, SLES 0.2 wt. %, second surfactant 0.005 wt. %
  foam height: 224.3 mL
Cycle 20, SLES 0.2 wt. %, second surfactant 0.005 wt. %
  foam height: 227.67 mL
Cycle 21, SLES 0.2 wt. %, second surfactant 0.005 wt. %
  foam height: 228.3 mL
Cycle 22, SLES 0.2 wt. %, second surfactant 0.005 wt. %
  foam height: 231 mL
Cycle 23, SLES 0.2 wt. %, second surfactant 0.005 wt. %
  foam height: 232.67 mL
Cycle 24, SLES 0.2 wt. %, second surfactant 0.005 wt. %
  foam height: 234.3 mL
Cycle 25, SLES 0.2 wt. %, second surfactant 0.005 wt. %
  foam height: 235.3 mL
Cycle 26, SLES 0.2 wt. %, second surfactant 0.005 wt. %
  foam height: 237 mL
Cycle 27, SLES 0.2 wt. %, second surfactant 0.005 wt. %
  foam height: 237.67 mL
Cycle 28, SLES 0.2 wt. %, second surfactant 0.005 wt. %
  foam height: 239 mL
Cycle 29, SLES 0.2 wt. %, second surfactant 0.005 wt. %
  foam height: 239.67 mL
Cycle 30, SLES 0.2 wt. %, second surfactant 0.005 wt. %
  foam height: 240 mL
Cycle 31, SLES 0.2 wt. %, second surfactant 0.005 wt. %
  foam height: 240.67 mL
Cycle 32, SLES 0.2 wt. %, second surfactant 0.005 wt. %
  foam height: 241.3 mL
Cycle 33, SLES 0.2 wt. %, second surfactant 0.005 wt. %
  foam height: 242.3 mL
Cycle 34, SLES 0.2 wt. %, second surfactant 0.005 wt. %
  foam height: 243 mL
Cycle 35, SLES 0.2 wt. %, second surfactant 0.005 wt. %
  foam height: 243 mL
Cycle 36, SLES 0.2 wt. %, second surfactant 0.005 wt. %
  foam height: 243.67 mL
Cycle 37, SLES 0.2 wt. %, second surfactant 0.005 wt. %
  foam height: 244 mL
Cycle 38, SLES 0.2 wt. %, second surfactant 0.005 wt. %
  foam height: 245.3 mL
Cycle 39, SLES 0.2 wt. %, second surfactant 0.005 wt. %
  foam height: 245 mL
Cycle 40, SLES 0.2 wt. %, second surfactant 0.005 wt. %
  foam height: 245 mL
Cycle 41, SLES 0.2 wt. %, second surfactant 0.005 wt. %
  foam height: 245.67 mL
Cycle 42, SLES 0.2 wt. %, second surfactant 0.005 wt. %
  foam height: 246 mL
Cycle 43, SLES 0.2 wt. %, second surfactant 0.005 wt. %
  foam height: 246 mL
Cycle 44, SLES 0.2 wt. %, second surfactant 0.005 wt. %
  foam height: 246.67 mL
Cycle 45, SLES 0.2 wt. %, second surfactant 0.005 wt. %
  foam height: 246.67 mL
Cycle 46, SLES 0.2 wt. %, second surfactant 0.005 wt. %
  foam height: 246.67 mL
Cycle 47, SLES 0.2 wt. %, second surfactant 0.005 wt. %
  foam height: 247 mL
Cycle 48, SLES 0.2 wt. %, second surfactant 0.005 wt. %
  foam height: 247.67 mL
Cycle 49, SLES 0.2 wt. %, second surfactant 0.005 wt. %
  foam height: 247.67 mL
Cycle 50, SLES 0.2 wt. %, second surfactant 0.005 wt. %
  foam height: 248 mL
Cycle 51, SLES 0.2 wt. %, second surfactant 0.005 wt. %
  foam height: 248.67 mL
Cycle 52, SLES 0.2 wt. %, second surfactant 0.005 wt. %
  foam height: 248.67 mL
Cycle 53, SLES 0.2 wt. %, second surfactant 0.005 wt. %
  foam height: 248.67 mL
Cycle 54, SLES 0.2 wt. %, second surfactant 0.005 wt. %
  foam height: 250 mL
Cycle 55, SLES 0.2 wt. %, second surfactant 0.005 wt. %
  foam height: 250.3 mL
Cycle 56, SLES 0.2 wt. %, second surfactant 0.005 wt. %
  foam height: 251.3 mL
Cycle 57, SLES 0.2 wt. %, second surfactant 0.005 wt. %
  foam height: 250.3 mL
Cycle 58, SLES 0.2 wt. %, second surfactant 0.005 wt. %
  foam height: 250 mL
Cycle 59, SLES 0.2 wt. %, second surfactant 0.005 wt. %
  foam height: 251 mL
Cycle 60, SLES 0.2 wt. %, second surfactant 0.005 wt. %
  foam height: 251.3 mL
Cycle 61, SLES 0.2 wt. %, second surfactant 0.005 wt. %
  foam height: 251.67 mL
Cycle 62, SLES 0.2 wt. %, second surfactant 0.005 wt. %
  foam height: 252.67 mL
Cycle 63, SLES 0.2 wt. %, second surfactant 0.005 wt. %
  foam height: 252 mL
Cycle 64, SLES 0.2 wt. %, second surfactant 0.005 wt. %
  foam height: 253 mL
Cycle 65, SLES 0.2 wt. %, second surfactant 0.005 wt. %
  foam height: 253.67 mL
Cycle 66, SLES 0.2 wt. %, second surfactant 0.005 wt. %
  foam height: 253.67 mL
Cycle 67, SLES 0.2 wt. %, second surfactant 0.005 wt. %
  foam height: 253.67 mL
Cycle 68, SLES 0.2 wt. %, second surfactant 0.005 wt. %
  foam height: 253 mL
Cycle 69, SLES 0.2 wt. %, second surfactant 0.005 wt. %
  foam height: 253 mL
Cycle 70, SLES 0.2 wt. %, second surfactant 0.005 wt. %
  foam height: 254 mL
Single surfactant, 1%, FIG. 1
  onset of foam saturation (in words): taking the longest to reach saturation
